Experimental data from patent US11059795B2, “Androgen receptor modulators and methods for their use” (ESSA Pharma, Inc., priority 2018, dated 2021).
Blank lines part the entries; values can stand above or below the compound they belong to.

How the values were obtained:
[1] = In vivo pharmacokinetics in plasma after oral gavage (PO) in male CD-1 mice; conditions: for bioavailability / AUC(0-t) / Cmax / Tmax / half-life: mouse; for half-life: read-out: t½ (converted); for Cmin at 5 mg/kg PO: Table 4
Description: The purpose of this study is to determine the pharmacokinetics of the tested compounds in plasma, following oral gavage administration (PO) to male CD-1 mice.
Animal Husbandry: Animals were group housed during acclimation and the study. The animal room environment were controlled (target conditions: temperature 18 to 26° C., relative humidity 30 to 70%, 12 hours artificial light and 12 hours dark). Temperature and relative humidity were monitored daily. Animals were fasted at least 12 hours prior to the administration. All animals had access to Certified Rodent Diet ad libitum 4 hours post dosing.
Dose Formulation: prepared 85-100 uL of a stock solution of representative compounds of the disclosure in DMSO at 50 mM; 1.5% v/v of Tween 80 were added and mixed gently; 95.5% v/v saline was added gently to the organic phase. The solution was mixed slowly by reverse pipetting to get a clear solution.
Dose Administration: the dose formulations were administered via oral gavage per facility SOPs. The dose volume were determined by the animals' body weight collected on the morning of dosing day
Sample Collection: blood collection (about 0.05 mL per time point) was performed from saphenous vein of each animal into polypropylene tubes at each timepoints (0, 0.25, 0.5, 1, 2, 4, 8, 12, and 24 hr). All blood samples were transferred into pre-chilled tubes containing 2 μL of K2-EDTA (0.5M) and placed on wet ice until centrifugation. Each collected blood sample was in the wet-ice before centrifugation. Each collected blood was under centrifugation for 15 minutes at 4° C. and 3000 g for plasma collection. Plasma samples were stored in polypropylene tubes, quickly frozen over dry ice and kept at −70±10° C. until LC/MS/MS analysis.
Bioanalytical analysis: A LC-MS/MS method for the quantitative determination of tested compound in biological matrix were developed under non-GLP compliance. A calibration curve with at least 7 non-zero calibration standards were applied for the method including LLOQ.
Plasma concentration versus time data were analyzed by non-compartmental approaches using the Phoenix WinNonlin 6.3 software program. Cl, Vdss, C0, Cmax, Tmax, T^1/2, AUC(0-t), AUC(0-inf), MRT(0-t), MRT(0-inf), % F (oral availability) and graphs of plasma concentration versus time profile were reported.

[2] = molecular target: LBD of estrogen receptor-β (ERβ) fused to DBD of GAL4 (Homo sapiens, UniProt Q92731); assay: LBD-expressing reporter assay (GeneBLAzer), ERβ LBD; type: cell-based; conditions: inhibition of maximal activity attained with agonist; read-out: Steroid Receptor LBD IC50 (μM) ERβ
Source text: To assess if the representative compounds (Compounds A13, A28, A38, A74, A93, and A109) compete with ligand (agonist) for the ligand-binding domain (LBD) of steroid hormone receptors (which would be off-target), the GeneBLAzer assay was employed (Thermo Fisher). This assay uses cells that stably express a chimera fusion protein comprising the LBD of a steroid hormone receptor fused to the DNA-binding domain (DBD) of GAL4 along with beta-lactamase reporter under transcriptional control of an upstream activator sequence (UAS). When agonist binds to the LBD of the GAL4 (DBD)-steroid hormone (LBD) chimera fusion protein, the protein binds to the UAS, resulting in expression of beta-lactamase. LBDs of androgen receptor (AR), progesterone receptor-beta (PRβ), glucocorticoid receptor (GR), estrogen receptor-α (ERα), and estrogen receptor-β (ERβ) were tested and IC50s calculated for inhibiting maximal activity attained with agonist.

[3] = Hepatocyte stability assay, rat hepatocytes; type: in vitro ADME; conditions: cryopreserved hepatocytes, read-out: Hepatocytes T½ (min) Rat
Source text: The […] of in vitro intrinsic clearance (Clint) for drug candidates in the early discovery stage is common practice in the pharmaceutical industry. The Clint values of drug candidates can help to confirm whether metabolism is the main clearance pathway when it is compared with the total body clearance in vivo. Hepatocytes are among the routinely used in vitro systems for measuring clearance. Hepatocytes have been reported to retain most of the phase I and phase II metabolic activities, and therefore, it is a useful tool to estimate the intrinsic clearance for potential drug candidates.
Metabolic stability of testing compound were be evaluated using human and mouse hepatocytes and can also be use rat, mouse, or other animal hepatocytes to predict intrinsic clearance. Cryopreserved hepatocytes were removed from the liquid nitrogen tank and thawed in a 37° C. water bath. As soon as the cells pulled away from the vial wall, they were decanted into 48 ml of warm HT medium. Cells were centrifuged for four minutes at 420 rpm (50 g). After removing the supernatant, pellet was re-suspended in warm DMEM medium. Cell density was counted by a hemacytometer.
The assay was carried out in 96-well microtiter plates. Compounds were incubated for 0, 60, 120, and 180 minutes at 37° C. with hepatocytes. Reaction mixtures (50 μL) contained a final concentration of 1 μM test compound, 0.5 million cells/mL hepatocytes in the DMEM medium. At each of the time points (for example, 0, 1, 2, and 3 hours), 200 μL of quench solution (100% acetonitrile with 0.1% formic acid) with internal standard was transferred to each well. Midazolam was included as a positive control to verify assay performance. Plates were sealed and centrifuged at 4° C. for 15 minutes at 4000 rpm. The supernatant is transferred to fresh plates for LC/MS/MS analysis.
Summarized conditions (customizable): [Compound]=[…], Positive control: midazolam and/or naloxone, [Hepatocyte]=0.5 million cells/Ml, time=0, 60, 120, and 180 min, t=37° C.
All samples were analyzed on LC/MS/MS using an AB Sciex API 4000 instrument, coupled to a Shimadzu LC-20AD LC Pump system. Analytical samples were separated using a Waters Atlantis T3 dC18 reverse phase HPLC column (20 mm×2.1 mm) at a flow rate of 0.5 mL/min. The mobile phase consisted of 0.1% formic acid in water (solvent A) and 0.1% formic acid in 100% acetonitrile (solvent B).
The extent of metabolism was calculated as the disappearance of the test compound, compared to the 0-min control reaction incubations. Initial rates were calculated for the compound concentration and used to determine t½ values and subsequently, the intrinsic clearance, Clint. Clint=(0.693)(1/t½(min))(mL incubation/million cells)

[4] = plasma, single PO dose 5 mg/kg, male CD-1 mice, oral availability
[5] = single PO dose 5 mg/kg, male CD-1 mice, plasma

Sequence of LBD of estrogen receptor-β (ERβ) fused to DBD of GAL4 (Q92731 264-498 limits assumed): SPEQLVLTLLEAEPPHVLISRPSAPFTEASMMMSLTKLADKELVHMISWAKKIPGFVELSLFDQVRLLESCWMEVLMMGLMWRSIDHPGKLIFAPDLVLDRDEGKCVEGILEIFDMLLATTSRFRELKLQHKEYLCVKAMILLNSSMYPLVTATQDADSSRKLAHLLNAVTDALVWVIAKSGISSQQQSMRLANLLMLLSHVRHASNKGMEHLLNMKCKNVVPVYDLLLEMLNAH

IC50 [2]: > 10 µM | half-life at 1 μM [3]: 75 min | Cmin at 5 mg/kg PO [1]: 230 nM | bioavailability [1, 4]: 85.8% | AUC(0-t) [1, 5]: 8310 ng·h/mL | Cmax [1, 5]: 1140 ng/mL | Tmax [1, 5]: 1 h | half-life [1, 5]: 8.3 h | AUC/D [1, 5]: 1661.9 kg·ng·h/mL/mg
Compound: CC(C)(c1ccc(OCc2ocnc2S(C)(=O)=O)cc1)c1cc(Cl)c(OCCCl)c(Cl)c1 [Compound A13, 5-((4-(2-(3,5-dichloro-4-(2-chloroethoxy)phenyl)propan-2-yl)phenoxy)methyl)-4-(methylsulfonyl)oxazole]

IC50 [2]: > 10 µM | half-life at 1 μM [3]: 31 min | bioavailability [1, 4]: 50.3% | AUC(0-t) [1, 5]: 8430 ng·h/mL | Cmax [1, 5]: 2010 ng/mL | Tmax [1, 5]: 0.5 h | half-life [1, 5]: 2.8 h | AUC/D [1, 5]: 1685.1 kg·ng·h/mL/mg
Compound: CC(C)(c1ccc(OCc2ocnc2S(C)(=O)=O)cc1)c1cc(Cl)c(OCCCl)c(C#N)c1 [Compound A28, 3-chloro-2-(2-chloroethoxy)-5-(2-(4-((4-(methylsulfonyl)oxazol-5-yl)methoxy)phenyl)propan-2-yl)benzonitrile]

IC50 [2]: > 10 µM | half-life at 1 μM [3]: 56 min | bioavailability [1, 4]: 86.4% | AUC(0-t) [1, 5]: 12800 ng·h/mL | Cmax [1, 5]: 1270 ng/mL | Tmax [1, 5]: 3.3 h | half-life [1, 5]: 4.9 h | AUC/D [1, 5]: 2561.0 kg·ng·h/mL/mg
Compound: CC(C)(c1ccc(OCc2coc(NS(C)(=O)=O)n2)cc1)c1cc(Cl)c(OCCCl)c(Cl)c1 [Compound A38, N-(4-((4-(2-(3,5-dichloro-4-(2-chloroethoxy)phenyl)propan-2-yl)phenoxy)methyl)oxazol-2-yl)methanesulfonamide]

IC50 [2]: > 10 µM | half-life at 1 μM [3]: > 360 min | Cmin at 5 mg/kg PO [1]: 2420 nM | AUC(0-t) [1, 5]: 72700 ng·h/mL | Cmax [1, 5]: 6310 ng/mL | Tmax [1, 5]: 2.7 h | AUC/D [1, 5]: 14542.3 kg·ng·h/mL/mg | t½ [1, 5]: 12.5 h | F (%) ([1]; single PO dose 5 mg/kg, male CD-1 mice, oral availability): 71.9%
Compound: CC(C)(c1ccc(OCc2ccnc(NS(C)(=O)=O)n2)cc1)c1cc(Cl)c(OCCCl)c(Cl)c1 [Compound A74, N-(4-((4-(2-(3,5-dichloro-4-(2-chloroethoxy)phenyl)propan-2-yl)phenoxy)methyl)pyrimidin-2-yl)methanesulfonamide]

Continued, compound first:

Compound: C[C@H](Oc1ccc(C(C)(C)c2cc(Cl)c(OCCCl)c(C#N)c2)cc1)c1ccnc(NS(C)(=O)=O)n1 (single isomer, unassigned) [Compound A170]
bioavailability [1, 4]: 150% | AUC(0-t) [1, 5]: 80000 ng·h/mL | Cmax [1, 5]: 8500 ng/mL | Tmax [1, 5]: 3 h | half-life [1, 5]: 3 h | AUC/D [1, 5]: 16007.6 kg·ng·h/mL/mg

Compound: CC(C)(c1ccc(OCc2ncc(S(C)(=O)=O)s2)cc1)c1cc(Cl)c(OCCCl)c(C#N)c1 [Compound A93, 3-chloro-2-(2-chloroethoxy)-5-(2-(4-((5-(methylsulfonyl)thiazol-2-yl)methoxy)phenyl)propan-2-yl)benzonitrile]
IC50 [2]: > 10 µM | half-life at 1 μM [3]: 94 min | bioavailability [1, 4]: 62.8% | AUC(0-t) [1, 5]: 32900 ng·h/mL | Cmax [1, 5]: 2970 ng/mL | Tmax [1, 5]: 0.8 h | half-life [1, 5]: 17.1 h | AUC/D [1, 5]: 6575.7 kg·ng·h/mL/mg

Compound: CC(C)(c1ccc(OCc2ccnc(NS(C)(=O)=O)n2)cc1)c1cc(Cl)c(OCCCl)c(C#N)c1 [Compound A109, N-(4-((4-(2-(3-chloro-4-(2-chloroethoxy)-5-cyanophenyl)propan-2-yl)phenoxy)methyl)pyrimidin-2-yl)methanesulfonamide]
IC50 [2]: > 10 µM | half-life at 1 μM [3]: > 360 min | Cmin at 5 mg/kg PO [1]: 680 nM | bioavailability [1, 4]: 33.6% | AUC(0-t) [1, 5]: 30700 ng·h/mL | Cmax [1, 5]: 2670 ng/mL | Tmax [1, 5]: 2.2 h | half-life [1, 5]: 8.1 h | AUC/D [1, 5]: 6143.0 kg·ng·h/mL/mg

Compound: Cc1cnc(NS(C)(=O)=O)nc1COc1ccc(C(C)(C)c2cc(Cl)c(OCCCl)c(C#N)c2)cc1 [Compound A122, N-(4-((4-(2-(3-Chloro-4-(2-chloroethoxy)-5-cyanophenyl)propan-2-yl)phenoxy)methyl)-5-methylpyrimidin-2-yl)methanesulfonamide]
bioavailability [1, 4]: 92.4% | AUC(0-t) [1, 5]: 6800 ng·h/mL | Cmax [1, 5]: 4080 ng/mL | Tmax [1, 5]: 0.5 h | half-life [1, 5]: 1.1 h | AUC/D [1, 5]: 1360.0 kg·ng·h/mL/mg

Compound: CCS(=O)(=O)Nc1nc(COc2ccc(C(C)(C)c3cc(Cl)c(OCCCl)c(C#N)c3)cc2)co1 [Compound A126]
bioavailability [1, 4]: 86% | AUC(0-t) [1, 5]: 24500 ng·h/mL | Cmax [1, 5]: 3110 ng/mL | Tmax [1, 5]: 1.3 h | half-life [1, 5]: 4.7 h | AUC/D [1, 5]: 4909.4 kg·ng·h/mL/mg

Compound: CCS(=O)(=O)Nc1nccc(COc2ccc(C(C)(C)c3cc(Cl)c(OCCCl)c(C#N)c3)cc2)n1 [Compound A131]
bioavailability [1, 4]: 81% | AUC(0-t) [1, 5]: 76000 ng·h/mL | Cmax [1, 5]: 7050 ng/mL | Tmax [1, 5]: 1.3 h | half-life [1, 5]: 5 h | AUC/D [1, 5]: 15209.4 kg·ng·h/mL/mg

Compound: CC(C)(c1ccc(OCc2nc(S(C)(=O)=O)cs2)cc1)c1cc(Cl)c(OCCCl)c(C#N)c1 [Compound A136, 3-Chloro-2-(2-chloroethoxy)-5-(2-(4-((4-(methylsulfonyl)thiazol-2-yl)methoxy)phenyl)propan-2-yl)benzonitrile]
bioavailability [1, 4]: 14% | AUC(0-t) [1, 5]: 42000 ng·h/mL | Cmax [1, 5]: 3430 ng/mL | Tmax [1, 5]: 1.5 h | half-life [1, 5]: 10.2 h | AUC/D [1, 5]: 8407.6 kg·ng·h/mL/mg

Compound: CC(C)(c1ccc(OC[C@H](O)CNS(C)(=O)=O)cc1)c1cc(Cl)c(OC[C@H](O)CCl)c(Cl)c1 [X, reference compound]
IC50 [2]: 7.37 µM
